Test system: APP targeted to plasma membrane (maAPP)
Assay: Targeting of mature APP (maAPP) to plasma membrane, biotinylation method
Assay type: cell-based, human
Protocol: It is reported that APP made in ER, then passed through Golgi, targeted to plasma membrane, in the maAPP form. APP hydrolysis was performed by alpha-secretase, sAPPα secretion was increased, and Aβ secretion, made by beta secretase, was decreased. Relative amount of maAPP increased by Justicidin A, amount of APP targeted to plasma membrane was measured by biotinylation method.
Hela cell line, transfected with the amyloid precursor protein (APP), was incubated in DMEM (Cat. #11995, Gibco, USA). The cell line was received from Prof. Tae-Wan Kim at Department of Pathology, Columbia University Medical Center, New York, N.Y. 10032, USA. 1.5×10^6 cells seeded in 60 mm dish, incubated for 24 hours. […] Avidin (S 1638, Sigma), specifically interacted to biotin, added to pellet (30 ul, 4° C., incubated for 30 min) for precipitation biotinylated protein, and precipitated protein was performed electrophoresis, then measured change of APP protein, exposed protein of outside of cell, by western blotting with APP antibody (1:2000 diluted, A8717, Sigma).
When Justicidin A was treated for 1 hour, the biotinylated APP was increased as the concentration increased 0.03, 0.1, and 0.25 uM, the and the molecular weight was the same as O-glycosylated APP (maAPP) (FIG. 7a). The result of western blotting was measured by band intensity to show the result in FIG. 7b. […]

Compound: COc1cc2c(OC)c3c(c(-c4ccc5c(c4)OCO5)c2cc1OC)C(=O)OC3 [Justicidin A]
- amount of maAPP in the cell membrane, by treatment time (0.1 uM, 10 min to 240 min): the amount of maAPP in the cell membrane as the treatment time increased
- amount of maAPP (biotinylated APP) in plasma membrane, by concentration (0.03, 0.1, and 0.25 uM, 1 hour): amount of maAPP increased in plasma membrane in a concentration-dependent manner

Reference: patent US9211278B2, “Composition containing arylnaphthalene lignan derivative for preventing and/or treating dementia” (KOREA INSTITUTE OF SCIENCE AND TECHNOLOGY, priority 2012, dated 2015)
